Laboratory results reported in paper PMC9268591, “Anti-Inflammatory, Analgesic and Antioxidant Potential of New (2S,3S)-2-(4-isopropylbenzyl)-2-methyl-4-nitro-3-phenylbutanals and Their Corresponding Carboxylic Acids through In Vitro, In Silico and In Vivo Studies” (Molecules, 2022).

Tests used:
COX-1 = COX-1 (Homo sapiens, UniProt P23219); test: Cyclooxygenase (COX-1) inhibition assay; type: biochemical; conditions: read-out: IC50 ± SEM COX-1
Description: (§1) The COX-1 and 2 enzymes’ inhibitions assays on the synthesized compounds were carried out as per the standard reported method. Initially, the respective enzyme solution was prepared in a concentration of 300 units/mL. The enzyme activation was started with keeping 10 µL of enzyme solution in the cold for up to 10 min. To this enzyme solution was added the substrate solution in HCl (0.1 M Trish buffer with pH of 8.0). The co-factor 50 µL solution contained TMPD (N,N,N,N-tetramethyl-p-phenylenediamine dihydrochloride, 0.24 mM), hematin (1 mM) and glutathione (0.9 mM). […] The reaction was initiated by adding arachidonic acid (20 µL, 30 mM). The overall solution was incubated for five minutes. Afterwards, the absorbance was recorded on a UV-visible instrument at 570 nm. From the absorbance value of every sample, the percentage inhibition was calculated as per the standard method.

5-LOX = target: T1, 5-LOX (Homo sapiens, UniProt P09917); test: 5-Lipoxygenase (5-LOX) inhibition assay; type: biochemical; conditions: read-out: 5LOX IC50 ± SEM
T1 construct: purchased Sigma Aldrich Germany 437996
T1 sequence (P09917 1-674): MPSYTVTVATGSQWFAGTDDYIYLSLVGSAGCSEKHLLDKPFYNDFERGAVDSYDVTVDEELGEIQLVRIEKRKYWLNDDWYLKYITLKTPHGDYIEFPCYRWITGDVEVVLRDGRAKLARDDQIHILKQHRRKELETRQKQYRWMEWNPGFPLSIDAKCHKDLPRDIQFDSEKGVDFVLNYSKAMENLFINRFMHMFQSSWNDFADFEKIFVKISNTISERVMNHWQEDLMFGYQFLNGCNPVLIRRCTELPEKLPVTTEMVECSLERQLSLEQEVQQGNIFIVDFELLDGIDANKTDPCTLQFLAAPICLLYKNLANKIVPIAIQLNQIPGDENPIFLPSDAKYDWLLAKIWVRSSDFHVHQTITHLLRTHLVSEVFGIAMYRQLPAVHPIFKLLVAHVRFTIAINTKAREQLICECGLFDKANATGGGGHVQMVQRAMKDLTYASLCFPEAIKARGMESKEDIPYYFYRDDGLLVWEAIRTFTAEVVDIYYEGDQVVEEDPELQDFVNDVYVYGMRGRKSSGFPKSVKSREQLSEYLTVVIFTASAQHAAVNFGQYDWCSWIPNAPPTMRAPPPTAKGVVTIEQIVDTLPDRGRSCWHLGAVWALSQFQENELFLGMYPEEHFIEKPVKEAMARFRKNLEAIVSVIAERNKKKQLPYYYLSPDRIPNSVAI
Description: The lipoxygenase inhibition assay on the synthesized compounds was carried out as per the standard reported method. […] The 5-LOX enzyme solution was also prepared at a strength of 10,000 units/mL. The linoleic acid (80 mM) was employed as a substrate in lipoxygenase assay. The buffer (phosphate) was also prepared for the assay having 50 mM strength and a pH of 6.3. The samples of synthesized compounds (250 µL), phosphate buffer (250 µL) and mixture of the enzyme were mixed and incubated for five minutes. Afterwards, the solution of the substrate (0.6 mM, 1000 µL) was mixed with lipoxygenase enzyme mixture with shaking. […] The percent inhibition was calculated as per the standard method. […]
91- 7, GmbH USA). these all were purchased from Sigma Aldrich Germany. Buffer solution
containing (KH2PO4 & K2HPO4), was of best quality with high purity. […]

[1] = DPPH free radical scavenging assay
Description: The protocol of Brand-Williams et al. was used for the DPPH assay with some modifications. DPPH (4 mg) was dissolved in methanol (100 mL) to obtain a mixture of […] 1,1-diphenyl,2-picrylhydrazyl (DPPH). The stock solution of the various synthesized compounds was prepared in methanol with 1 mg/mL concentration. This stock solution was used to prepare different concentrations of test samples ranging within 1000–62.5 μg/mL. The 0.1 mL of each concentration (1000–62.5 μg/mL) was combined with the DPPH (3 mL) solution in methanol. The solution was kept at 23 °C for 15 min incubation, followed by the absorbance measurement deliberated at 517 nm. Gallic acid was used as a standard drug in this assay. The percentage DPPH radical scavenging potential was measured via the formula [44]: % radical scavenging potential=CAbs.−SAbs./CAbs.×100 where CAbs. is the absorbance of the control, and SAbs is the absorbance of test samples/standard.

COX-2 = target: T2, COX-2 (Homo sapiens, UniProt P35354); test: Cyclooxygenase (COX-2) inhibition assay; type: biochemical; conditions: for SI (calculated selectivity index): COX-2 selectivity over COX-1; for IC50: read-out: IC50 ± SEM COX-2
T2 construct: purchased Sigma Aldrich Germany C0858
T2 sequence (P35354 18-604): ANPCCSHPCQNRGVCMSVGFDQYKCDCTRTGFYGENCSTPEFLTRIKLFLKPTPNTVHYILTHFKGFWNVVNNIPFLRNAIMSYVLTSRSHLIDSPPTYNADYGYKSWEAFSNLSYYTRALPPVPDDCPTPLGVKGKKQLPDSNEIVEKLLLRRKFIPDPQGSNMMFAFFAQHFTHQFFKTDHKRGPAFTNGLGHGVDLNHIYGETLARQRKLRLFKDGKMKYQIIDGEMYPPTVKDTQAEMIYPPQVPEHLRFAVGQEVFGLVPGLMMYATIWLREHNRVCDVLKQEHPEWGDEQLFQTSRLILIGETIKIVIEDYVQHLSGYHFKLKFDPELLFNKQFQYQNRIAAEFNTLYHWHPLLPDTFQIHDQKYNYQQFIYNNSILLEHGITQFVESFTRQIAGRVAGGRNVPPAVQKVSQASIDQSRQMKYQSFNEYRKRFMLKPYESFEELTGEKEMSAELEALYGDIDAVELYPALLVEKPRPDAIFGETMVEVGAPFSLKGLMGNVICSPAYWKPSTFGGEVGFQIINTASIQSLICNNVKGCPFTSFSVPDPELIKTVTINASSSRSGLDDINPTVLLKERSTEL
Description: as §1
Cyclooxygenase (COX-2) was acquired from human recombinant (Catalog No:C0858) and […]
co-factor substances in this study like N, N_, N_-tetramethyl-p-phenylenediamine […]
91- 7, GmbH USA). these all were purchased from Sigma Aldrich Germany. Buffer solution containing (KH2PO4 & K2HPO4), was of best quality with high purity. […]
was purchased from Pfizer Pharmaceutical and Libra (Pvt.) limited . Tramadol, Diclofenac was purchased from Alliance Pharmaceutical Pakistan.

[2] = ABTS free radical scavenging assay
Description: The total antioxidant activity of test compound (HBH) was estimated using the 2, 2-azinobis [3-ethylbenzthiazoline]-6-sulfonic acid (ABTS). The 100 mL of ABTS solution (7 mM) was added to 100 mL of potassium persulfate ([…], 2.45 mM) solution, mixed, and kept in the dark for 12 h to generate free radicals. […]. Gallic acid at 2 mg/2 mL of water was used as a standard drug. Likewise, for the test sample, different concentrations (1000–62.5 μg/mL) of the […] were made for absorbance measurements at the same wavelength. The 300 μL of each test solution was added to 3 mL of ABTS solution to measure the absorbance at 745 nm through a UV-visible spectrophotometer. A similar volume of each standard solution was taken to determine the absorbance at the same wavelength. The ABTS percent scavenging potential was calculated via the above formula [45].

albino mice [3] = test: Acute toxicity; type: in vivo; conditions: highest dose 2000 mg/kg
Text: Before testing our selected compounds for in vivo experiments, we performed the toxicity test as per the protocol. Four groups of animals were labelled, with eight animals in each group. The control group was given normal saline, while other groups were given different concentrations of the selected compounds.

albino mice [4] = test: Carrageenan-induced inflammation; type: in vivo, Swiss albino mice; conditions: standard aspirin (100 mg/kg in method)
Description: After the acute toxicity studies, the carrageenan-induced inflammation assay was performed on the compounds having a safety profile within limit. Forty (40) albino mice of both sexes were alienated into five different groups, with eight mice in each group. Group I was tagged as the negative control group and was administered dimethylsulfoxide (10 mL/kg, 10% v/v) and phosphate buffer (150 µL). Group II was tagged as the standard/positive control group and received a dose of aspirin (100 mg/kg in 0.9% normal saline). The remaining groups (III, IV and V) were tagged as experimental groups and received synthesized compounds (25, 50 and 100 mg/kg in DMSO) and Tween-80 in normal saline. After half an hour, carrageenan suspension (0.05 mL, 1% w/v in saline) was injected into the animals. After the injection of the irritant/carrageenan, the inflammation in the paws was measured by a plethysmometer in intervals (1 to 5 h). The inflammation in the paws of animals in different groups was compared with that of the vehicle, and the percent anti-inflammatory activities were recorded as per the standard method.

albino mice [5] = test: Acetic acid induced writhing test; type: in vivo, Swiss albino mice; conditions: standard drug 10 mg/kg
Description: The acetic induced analgesic assay on the compounds FM10 and FM12 was performed to determine the role of the peripheral pathway. The albino mice of both sexes were divided into two groups. Compounds FM10 and FM12 were administered to both the groups in doses of 25 and 50 mg/kg. After 1 h, acetic acid was injected intraperitoneally in the strength of 10 mL/kg. The negative control was Tween 80 1% solution in the strength of 10 mL/kg. […] The activities in animals were determined from the number of stretchings and writings.

Chain of COX-1 (P23219 24-599): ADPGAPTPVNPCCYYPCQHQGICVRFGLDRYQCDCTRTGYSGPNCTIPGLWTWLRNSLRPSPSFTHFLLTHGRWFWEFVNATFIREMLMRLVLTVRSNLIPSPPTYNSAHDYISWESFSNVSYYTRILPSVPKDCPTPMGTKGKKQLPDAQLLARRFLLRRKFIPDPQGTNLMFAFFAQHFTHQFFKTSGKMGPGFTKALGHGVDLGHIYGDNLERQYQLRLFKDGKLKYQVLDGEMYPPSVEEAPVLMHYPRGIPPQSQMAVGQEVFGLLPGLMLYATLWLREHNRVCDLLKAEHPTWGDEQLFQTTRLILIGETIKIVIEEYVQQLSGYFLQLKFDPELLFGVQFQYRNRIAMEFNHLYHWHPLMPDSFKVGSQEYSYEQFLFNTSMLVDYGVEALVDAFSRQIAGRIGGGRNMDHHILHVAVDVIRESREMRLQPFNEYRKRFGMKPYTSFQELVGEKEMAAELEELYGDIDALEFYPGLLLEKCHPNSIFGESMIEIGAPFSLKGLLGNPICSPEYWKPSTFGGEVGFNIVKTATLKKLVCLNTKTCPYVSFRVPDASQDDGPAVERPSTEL

Structure (SMILES) | IC50 (COX-1) [µM] | IC50 (5-LOX) [µM] | melting point [°C] | IC50 [1] [µM] | SI (calculated selectivity index) (COX-2) | IC50 (COX-2) [µM] | IC50 [2] [µM] | Acute toxicity observation (albino mice [3]) | Anti-inflammatory activity, carrageenan assay (albino mice [4]; first hour) [%] | Anti-inflammatory activity, carrageenan assay (albino mice [4]; fourth hour) [%] | Mean inhibition of writhes (albino mice [5]) [%]
CC(C)c1ccc(C[C@](C)(C=O)[C@@H](C[N+](=O)[O-])c2ccccc2)cc1 (mixture of isomers) [FM1, (2S,3S)-2-(4-isopropylbenzyl)-2-methyl-4-nitro-3-phenylbutanal] | 14.8 ± 1.19 | 1.81 ± 0.11 | 149 to 151 | 54.4 | 12.2 | 1.21 ± 0.03 | 62.9 | – | – | – | –
CC(C)c1ccc(C[C@](C)(C=O)[C@@H](C[N+](=O)[O-])c2ccc(Cl)cc2)cc1 (mixture of isomers) [FM2, (2S,3S)-3-(4-chlorophenyl)-2-(4-isopropylbenzyl)-2-methyl-4-nitrobutanal] | 38 ± 1.65 | 0.64 ± 0.01 | 173 to 175 | 55.4 | 15.1 | 2.51 ± 0.24 | 42 | – | – | – | –
Cc1ccc([C@H](C[N+](=O)[O-])[C@@](C)(C=O)Cc2ccc(C(C)C)cc2)cc1 (mixture of isomers) [FM3, (2S,3S)-2-(4-isopropylbenzyl)-2-methyl-4-nitro-3-(p-tolyl)butanal] | 12.8 ± 1.08 | 9.69 ± 0.99 | 135 to 137 | 15.1 | 3.6 | 3.53 ± 0.18 | 11.5 | – | – | – | –
COc1ccc([C@H](C[N+](=O)[O-])[C@@](C)(C=O)Cc2ccc(C(C)C)cc2)cc1 (mixture of isomers) [FM4, (2S,3S)-2-(4-isopropylbenzyl)-3-(4-methoxyphenyl)-2-methyl-4-nitrobutanal] | 31.7 ± 1.37 | 0.98 ± 0.12 | – | 21.1 | 42.8 | 0.74 ± 0.03 | 25.8 | very mild seizures and disturbances in breath (temporary) | – | – | –
COc1ccccc1[C@H](C[N+](=O)[O-])[C@@](C)(C=O)Cc1ccc(C(C)C)cc1 (mixture of isomers) [FM5, (2S,3S)-2-(4-isopropylbenzyl)-3-(2-methoxyphenyl)-2-methyl-4-nitrobutanal] | 58.4 ± 2.08 | 16.3 ± 1.02 | 129 to 131 | 184 | 7.2 | 8.15 ± 0.98 | 191 | – | – | – | –
CC(C)c1ccc(C[C@](C)(C=O)[C@@H](C[N+](=O)[O-])c2ccco2)cc1 (mixture of isomers) [FM6, (2S,3S)-3-(furan-2-yl)-2-(4-isopropylbenzyl)-2-methyl-4-nitrobutanal] | 54.8 ± 1.95 | 6.17 ± 0.23 | 161 to 163 | 49.7 | 11.6 | 4.72 ± 0.08 | 37.7 | – | – | – | –
CC(C)c1ccc(C[C@](C)(C(=O)O)[C@@H](C[N+](=O)[O-])c2ccccc2)cc1 [FM7, (2S,3S)-2-(4-isopropylbenzyl)-2-methyl-4-nitro-3-phenylbutanoic Acid] | 25.3 ± 1.22 | 0.73 ± 0.05 | 243 to 245 | 22.5 | 23.2 | 1.09 ± 0.01 | 24.7 | – | – | – | –
CC(=O)Oc1ccccc1C(=O)O [aspirin, acetylsalicylic acid] | – | – | – | – | – | – | – | – | 52.77 | 61.43 | 73.01
